Measured values from US9522882B2, “Strigolactam derivatives as plant growth regulating compounds” (Syngenta Participations AG, priority 2011, dated 2016).

Columns and labels:
[1] = system: Orobanche cumana Wallr. seeds; test: Orobanche cumana seed germination test on glass fiber filter paper in petri dishes; format: in vivo; details: mean, n = 5 × 100 seeds; for Germination %* at concentration of 0.001 mg I^−1 / Germination %* at concentration of 0.01 mg I^−1 / Germination %* at concentration of 0.1 mg I^−1: preconditioned Orobanche cumana seeds of lot IN153, race F
Description: The effect of compounds of Formula (I) on germination of Orobanche cumana Wallr. seeds was evaluated on glass fiber filter paper (GFFP) in petri dishes. Seeds were preconditioned at moisture and suitable temperature to become responsive to the specific chemical germination stimulants.
Test compounds were dissolved in DMSO (10 000 mg l^−1) and stored at room temperature in a desiccators with desiccants. The stock solutions were dissolved with deionised water to the appropriate final test concentration.
Seeds of O. cumana race ‘F’ were collected from sunflower fields in Manzanilla (Seville, Spain) in 2006 (seed lot 1N146) and 2008 (seed lot 1N153) and stored at room temperature. To separate seeds from heavy organic debris, a modified sucrose floatation technique as described by Hartman & Tanimonure (Plant Disease (1991), 75, p. 494) was applied. Seeds were filled into a separation funnel and stirred in water. When seeds floated to the surface, the water fraction containing heavy debris was discarded. Seeds were re-suspended in 2.5M sucrose solution (specific gravity of 1.20) and heavy debris was allowed to settle down for 60 min. After removing debris, seeds were disinfected in 1% sodium hypochlorite solution and 0.025% (v/v) Tween 20 for 2 min. The seeds were decanted onto two layers of cheesecloth, rinsed with sterile deionised water and re-suspended in sterile deionised water. Two ml of the seed suspension containing approximately 150-400 seeds were spread evenly on two layers of sterile glass fiber filter paper disc ([…]) in Petri dishes (Ø9 cm). After wetting the discs with 3 ml sterile deionised water, petri dishes were sealed with parafilm. Seeds were incubated for 10 days at 20° C. in the dark for seed conditioning. The upper disc with conditioned seeds was briefly dried, transferred to a petri dish lined with a dry GFFP disc, and wetted with 6 ml of the appropriate test solution. The compounds of Formula (I) were tested at concentrations of 0.001, 0.01, and 0.1 mg l^−1. The strigolactone analogue GR24 (commercially available as a mixture of isomers) was included as positive control and 0.001% DMSO as negative control. All treatments were tested in five replicates. Seeds were re-incubated at 20° C. in the dark and examined for germination 10 days later. The radicles of germinated seeds were stained for 5 min with blue ink (MIGROS, Switzerland) in 5% acetic acid according to Long et al. (Seed Science Research (2008), 18, p. 125). After staining, seeds were scanned using a flatbed scanner with an optical resolution of 1200 dpi (PULSTEK, OpticPro ST28) or photographed using a camera stand mounted with a digital SLR camera (Canon EOS 5D). Germination of 100 seeds per replicate was evaluated on digital images. Seeds were considered germinated when the radicle protruded from the seed coat.

[2] = system: Brassica oleracea cv Botrytis; test: Standard paper germination test for Brassica (tropical cauliflower seeds, 20° C. in the dark); format: in vivo; details: tropical cauliflower 3C150 (seed batch 11B295), 25 μM; for Gmax (total germination): DMSO treatment = 31.3%
Description: The effect of compounds of Formula (I) on the germination of Brassica oleracea cv Botrytis or common cauliflower was tested on tropical types. […] Germination of a sensitive tropical type at 20° is stimulated by the presence of light.
The tropical seed batch tested was part of seed batches produced as basic seed (for maintenance of the parental line) and were processed accordingly.
Germination was assessed using the standard paper germination test for Brassica: Fifty seeds were placed on blue germination paper, which was moistened with the appropriate solutions, in closed oblong germination boxes. Each condition was tested in duplo. Germination boxes were placed in controlled germination cabinets with the appropriate temperature and light conditions. Germination of seeds was counted at regular intervals. Seeds were considered to be germinated when the radical had protruded the testa and endosperm (radical size approximately 1 mm). Germination kinetics were analyzed using the Germinator analysis tool in order to obtain the parameters: Gmax (maximum germination) and t50 (time needed to reach 50% of the Gmax). The Germinator analysis tool is an add-in in for excel developed by the University of Wageningen: Joosen, R. V. L., J. Kodde, et al. (2010). (“Germinator: A Software Package for High-Throughput Scoring and Curve Fitting of Arabidopsis Seed Germination.” The Plant Journal 62(1): 148-159.)
Test compounds were dissolved in DMSO at a concentration of 50 mM and stored at −20° C. The strigolactone analogue GR24 (commercially available as a racemic mixture of 2 diastereoisomers, referred to as “synthetic strigolactone GR-24” and first prepared by Johnson A. W. & all, Journal of the Chemical Society, Perkin Transactions 1, 1981, page 1734-1743) was included as positive control. Germination solutions were prepared by diluting the stock solutions with demineralized water till 25 μM. As control solutions demineralized water and a 0.05% v/v DMSO solution were used.

[3] = aqueous control (0.001% DMSO) = 0.2% germination
[4] = Table 3, preconditioned seeds of lot IN146, raceF, aqueous control (0.001% DMSO) = 0% germination
[5] = Table 5, preconditioned seeds of lot IN153, raceF, aqueous control (0.001% DMSO) = 0.2% germination
[6] = Table 6, preconditioned seeds of lot IN153, raceF, aqueous control (0.001% DMSO) = 0.8% germination
[7] = Table 4, preconditioned seeds of lot IN146, raceF, aqueous control (0.001% DMSO) = 0% germination

## CC1=CC(OC=C2C(=O)NC3c4cccc(-c5ccccc5)c4CC23)OC1=O (mixture of isomers) [Compound A9]
[1]; [3]
  Germination %* at concentration of 0.001 mg I^−1: 53.4%
  Germination %* at concentration of 0.01 mg I^−1: 84.4%
  Germination %* at concentration of 0.1 mg I^−1: 76.8%

## CC1=CC(OC=C2C(=O)NC3c4cccc(-c5ccncc5)c4CC23)OC1=O (mixture of isomers) [Compound A10]
[1]; [3]
  Germination %* at concentration of 0.001 mg I^−1: 11.2%
  Germination %* at concentration of 0.01 mg I^−1: 18.0%
  Germination %* at concentration of 0.1 mg I^−1: 24.0%

## CC1=CC(OC=C2C(=O)NC3c4cccc(-c5cccnc5)c4CC23)OC1=O (mixture of isomers) [Compound A11]
[1]; [3]
  Germination %* at concentration of 0.001 mg I^−1: 30.0%
  Germination %* at concentration of 0.01 mg I^−1: 65.6%
  Germination %* at concentration of 0.1 mg I^−1: 90.8%

## CC1=CC(OC=C2C(=O)NC3c4cccc(-c5nccs5)c4CC23)OC1=O (mixture of isomers) [Compound A12]
[1]; [3]
  Germination %* at concentration of 0.001 mg I^−1: 13.0%
  Germination %* at concentration of 0.01 mg I^−1: 7.0%
  Germination %* at concentration of 0.1 mg I^−1: 26.8%

## CC1=CC(OC=C2C(=O)NC3c4cccc(-c5ccco5)c4CC23)OC1=O (mixture of isomers) [Compound A13]
[1]; [3]
  Germination %* at concentration of 0.001 mg I^−1: 13.4%
  Germination %* at concentration of 0.01 mg I^−1: 66.4%
  Germination %* at concentration of 0.1 mg I^−1: 90.0%

## C=CCc1cccc2c1C[C@@H]1/C(=C\O[C@H]3C=C(C)C(=O)O3)C(=O)N[C@H]21 (relative stereo) [Compound A1, (3aR*,8bS*, 5′R*)-5-allyl-3-[1-(4-Methyl-5-oxo-2,5-dihydro-furan-2-yloxy)-meth-(E)-ylidene]-3,3a,4,8b-tetrahydro-1H-indeno[1,2-b]pyrrol-2-one]
[1]; [4]
  Germination % at concentration of 0.001 mg I^−1: 85.8%
  Germination % at concentration of 0.01 mg I^−1: 82.0%
  Germination % at concentration of 0.1 mg I^−1: 82.6%

## CC#Cc1cccc2c1C[C@@H]1/C(=C\O[C@H]3C=C(C)C(=O)O3)C(=O)N[C@H]21 (relative stereo) [Compound A4]
[1]; [5]
  Germination % at concentration of 0.001 mg I^−1: 97.6%
  Germination % at concentration of 0.01 mg I^−1: 94.4%
  Germination % at concentration of 0.1 mg I^−1: 98.2%

## COCC#Cc1cccc2c1C[C@@H]1/C(=C\O[C@H]3C=C(C)C(=O)O3)C(=O)N[C@H]21 (relative stereo) [Compound A5]
[1]; [5]
  Germination % at concentration of 0.001 mg I^−1: 79.0%
  Germination % at concentration of 0.01 mg I^−1: 91.4%
  Germination % at concentration of 0.1 mg I^−1: 99.2%

## CC1=C[C@H](O/C=C2/C(=O)N[C@@H]3c4cccc(C#Cc5ccccc5)c4C[C@H]23)OC1=O (relative stereo) [Compound A6]
[1]; [3]
  Germination %* at concentration of 0.001 mg I^−1: 2.6%
  Germination %* at concentration of 0.01 mg I^−1: 40.2%
  Germination %* at concentration of 0.1 mg I^−1: 83.6%

## C=Cc1cccc2c1C[C@@H]1/C(=C\O[C@H]3C=C(C)C(=O)O3)C(=O)N[C@H]21 (relative stereo) [Compound A7]
[1]; [6]
  Germination % at concentration of 0.001 mg I^−1: 96.4%
  Germination % at concentration of 0.01 mg I^−1: 96.8%
  Germination % at concentration of 0.1 mg I^−1: 95.4%

## COC(=O)c1ccc2c(c1)C1NC(=O)/C(=C/O[C@H]3C=C(C)C(=O)O3)[C@H]1C2 (stereo in doubt) [Compound A3, methyl(3E,3aR,8bR)-3-[[(2R)-4-methyl-5-oxo-2H-furan-2-yl]oxymethylene]-2-oxo-1,3a,4,8b-tetrahydroindeno[1,2-b]pyrrole-7-carboxylate]
[2]
  stimulation (extra germination compared to the DMSO treatment, expressed as percentage of the DMSO treatment): 36.7%
  Gmax (total germination): 43.0%
[1]; [7]
  Germination % at concentration of 0.001 mg I^−1: 85.8%
  Germination % at concentration of 0.01 mg I^−1: 82.0%
  Germination % at concentration of 0.1 mg I^−1: 82.6%

## C#Cc1cccc2c1C[C@@H]1/C(=C\O[C@H]3C=C(C)C(=O)O3)C(=O)N[C@H]21 [Compound A2, (3E,3aR,8bS)-5-ethynyl-3-[(4-methyl-5-oxo-2H-furan-2-yl)oxymethylene]-1,3a,4,8b-tetrahydroindeno[1,2-b]pyrrol-2-one]
[1]; [4]
  Germination % at concentration of 0.001 mg I^−1: 85.8%
  Germination % at concentration of 0.01 mg I^−1: 82.0%
  Germination % at concentration of 0.1 mg I^−1: 86.2%

## CC1=C[C@H](O/C=C2/C(=O)N[C@@H]3c4c(cccc4C4CC4)C[C@H]23)OC1=O [Compound A8, (3E,3aR,8bS)-8-cyclopropyl-3-[[(2R)-4-methyl-5-oxo-2H-furan-2-yl]oxymethylene]-1,3a,4,8b-tetrahydroindeno[1,2-b]pyrrol-2-one]
[1]; [3]
  Germination %* at concentration of 0.001 mg I^−1: 81.2%
  Germination %* at concentration of 0.01 mg I^−1: 88.5%
  Germination %* at concentration of 0.1 mg I^−1: 86.8%

## CC1=C[C@H](O/C=C2/C(=O)O[C@@H]3c4ccccc4C[C@H]23)OC1=O [GR24, reference compound]
[2]
  stimulation (extra germination compared to the DMSO treatment, expressed as percentage of the DMSO treatment): 140.0%
  Gmax (total germination): 73.0%
[1]; [5]
  Germination % at concentration of 0.001 mg I^−1: 88.6%
  Germination % at concentration of 0.01 mg I^−1: 96.0%
  Germination % at concentration of 0.1 mg I^−1: 93.8%
[1]; [6]
  Germination % at concentration of 0.001 mg I^−1: 79.8%
  Germination % at concentration of 0.01 mg I^−1: 93.2%
  Germination % at concentration of 0.1 mg I^−1: 96.8%
[1]; [3]
  Germination %* at concentration of 0.001 mg I^−1: 60.8%
  Germination %* at concentration of 0.01 mg I^−1: 83.2%
  Germination %* at concentration of 0.1 mg I^−1: 90.6%
